Columns and labels:
Assay type in all cases: cell-based, human
THP1 cells [1] = assay: CellTiter 96 AQueous One Solution Cell Proliferation (MTS) assay
Experimental: Cell Viability Assay: MTS assays were performed using the CellTiter 96 AQueous One Solution Cell Proliferation Assay (Promega) according to the manufacturer's instructions. […] 48 hours the later MTS assay was performed according the to manufacturer's protocol.

PARP1, PARP2, Tankyrase = PARP1, PARP2, Tankyrase abundance immunoblot
THP1 cells [2] = assay: Alkaline comet assay in THP1 cells
Experimental: Comet assays: DNA damage in individual cells was assessed using OxiSelect™ Comet Assay Kits (Cell Biolabs, Cat #STA-351) according to the manufacturer's protocol. THP1 cells were treated as indicated, collected by centrifugation, washed twice with ice-cold PBS, and resuspended in cold PBS at 1×10^5 cells/ml. Cells were mixed with molten Comet agarose (1:10, v/v) and immediately transferred to wells of the Comet Agarose Base Layer (pre-prepared by adding 75 μl molten agarose to Comet slides) in 75 μl aliquots. Cells were embedded on the agarose by cooling the gel at 4° C. for 15 minutes in the dark and then lysed in pre-chilled lysis buffer for 60 minutes at 4° C. The cell-containing slides were neutralized in pre-chilled alkaline buffer for 30 minutes and then carefully transferred to a horizontal electrophoresis chamber. Electrophoresis was conducted in cold Alkaline Electrophoresis Solution (300 mM NaOH, pH>13, 1 mM EDTA) for 30 minutes at 1 volt/cm (300 mA current). The samples were washed three times in pre-chilled water and immersed in 70% ethanol for 5 minutes. The cells were subsequently air dried and their DNA stained with 100 μl/well of diluted Vista Green DNA Dye. After incubating at room temperature, cells were finally visualized under a fluorescence microscope using an FITC filter. Comet length was quantified using OpenComet software as described before (Gyori et al., 2014).

Nc1nc2c(ncn2[C@@H]2O[C@@H]3COP(=O)(O)O[C@H]4[C@@H](O)[C@H](n5cnc6c(N)ncnc65)O[C@@H]4COP(=O)(O)O[C@@H]2[C@@H]3O)c(=O)[nH]1 [cGAMP, cyclic guanosine monophosphate-adenosine monophosphate]
sensitization to IR in rucaparib-pretreated cells (THP1 cells [1]; WT THP1, 10 μM Rucaparib, 10Gy, 48 hours): unable to further sensitize cells to IR
sensitivity to ionizing radiation (cell survival) (THP1 cells [1]; WT THP1, 10Gy, 48 hours): more sensitive to ionizing radiation (IR)
THP1 cell proliferation (THP1 cells [1]; WT THP1 post cGAMP treatment): inhibited THP1 cell proliferation
abundance of PARP1 (PARP1, PARP2, Tankyrase; THP1 and HEK293 cells): significantly augmented
abundance of PARP1, PARP2, Tankyrase (PARP1, PARP2, Tankyrase; cGAMP-stimulated cells): no decrease in the abundance of PARP1, PARP2, or Tankyrase
camptothecin-induced DNA damage (comet tail length) (THP1 cells [2]; THP1, cGAMP 6 hours then 1 μM camptothecin 16 hours): exacerbates camptothecin-induced DNA damage
DNA strand breaks in comet assay (THP1 cells [2]; THP1 cells, cGAMP 16 hours): no strand breaks were observed
